Test results reported in publication PMC8841438 (Clinical and Translational Science, 2021).
Where two headings read alike, the source gives them in different places.

Legend:
[1] = assay type: in vivo, human
[2] = assay type: in vivo, human; remark: listed apart in the source
Safety assessments = assay type: in vivo, human; conditions: for subjects with at least one graded laboratory abnormality: majority grade 1 or 2
[3] = target: T1, organic cation transporter 2 (OCT2) (Homo sapiens, UniProt O15244); test: In vitro transporter inhibition: OCT2; assay type: in vitro ADME; conditions: data on file at Gilead Sciences, Inc.
T1 sequence (O15244 1-555): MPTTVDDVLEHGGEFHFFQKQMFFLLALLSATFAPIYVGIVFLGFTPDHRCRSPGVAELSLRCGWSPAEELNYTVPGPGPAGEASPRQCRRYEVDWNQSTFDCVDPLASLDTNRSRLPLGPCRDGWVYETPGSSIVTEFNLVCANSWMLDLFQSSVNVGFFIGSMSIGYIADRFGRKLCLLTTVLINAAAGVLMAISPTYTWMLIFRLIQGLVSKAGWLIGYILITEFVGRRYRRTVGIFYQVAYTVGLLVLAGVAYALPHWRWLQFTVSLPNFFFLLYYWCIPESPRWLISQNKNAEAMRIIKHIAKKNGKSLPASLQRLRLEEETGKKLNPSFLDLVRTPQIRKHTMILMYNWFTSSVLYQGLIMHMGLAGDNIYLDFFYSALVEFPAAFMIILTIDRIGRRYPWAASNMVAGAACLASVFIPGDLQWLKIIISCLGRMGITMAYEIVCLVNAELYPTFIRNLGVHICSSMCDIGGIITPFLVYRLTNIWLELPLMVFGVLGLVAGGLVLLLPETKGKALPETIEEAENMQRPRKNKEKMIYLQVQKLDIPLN

MATE1 [4] = target: T2, MATE1 (Homo sapiens, UniProt Q96FL8); test: In vitro transporter inhibition: MATE1; assay type: in vitro ADME; conditions: data on file at Gilead Sciences, Inc.
T2 sequence (Q96FL8 1-570): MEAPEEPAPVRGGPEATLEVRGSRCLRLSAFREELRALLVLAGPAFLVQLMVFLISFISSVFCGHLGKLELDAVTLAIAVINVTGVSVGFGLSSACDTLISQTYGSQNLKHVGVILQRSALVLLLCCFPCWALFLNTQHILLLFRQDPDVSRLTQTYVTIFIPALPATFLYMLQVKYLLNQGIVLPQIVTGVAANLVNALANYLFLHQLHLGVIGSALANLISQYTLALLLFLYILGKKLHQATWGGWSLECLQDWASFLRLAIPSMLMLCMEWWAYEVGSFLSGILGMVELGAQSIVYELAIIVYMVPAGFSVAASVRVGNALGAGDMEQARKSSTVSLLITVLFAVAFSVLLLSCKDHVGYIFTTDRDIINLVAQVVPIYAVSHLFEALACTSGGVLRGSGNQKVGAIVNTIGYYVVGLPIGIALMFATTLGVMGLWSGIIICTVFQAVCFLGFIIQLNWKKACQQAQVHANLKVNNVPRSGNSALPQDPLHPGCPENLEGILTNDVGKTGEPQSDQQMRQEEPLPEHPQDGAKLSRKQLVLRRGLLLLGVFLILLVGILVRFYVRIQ

JAK1 = conditions: whole blood and cellular assays; cited from earlier work
[5] = cited from earlier work
[6] = system: carboxylesterase 2 (CES2); conditions: cited from earlier work
P‐glycoprotein = conditions: in vitro; cited from earlier work
P‐gp = conditions: in vitro; at clinically relevant concentrations; cited from earlier work
[7] = system: breast cancer resistance protein; conditions: in vitro; at clinically relevant concentrations; cited from earlier work
bile salt export pump = conditions: in vitro; at clinically relevant concentrations; cited from earlier work
[8] = system: organic anion transporter 1; conditions: in vitro; at clinically relevant concentrations; cited from earlier work
[9] = system: organic anion transporter 3; conditions: in vitro; at clinically relevant concentrations; cited from earlier work
[10] = system: organic anion transporter 4; conditions: in vitro; at clinically relevant concentrations; cited from earlier work
[11] = target: T1, organic cation transporter 2 (OCT2); conditions: in vitro; cited from earlier work
MATE1 [12] = target: T2, MATE1; conditions: in vitro; cited from earlier work
MATE2K = MATE2K (Homo sapiens, UniProt Q86VL8); conditions: in vitro; cited from earlier work
Chain of MATE2K (Q86VL8 1-566 isoform Q86VL8-3): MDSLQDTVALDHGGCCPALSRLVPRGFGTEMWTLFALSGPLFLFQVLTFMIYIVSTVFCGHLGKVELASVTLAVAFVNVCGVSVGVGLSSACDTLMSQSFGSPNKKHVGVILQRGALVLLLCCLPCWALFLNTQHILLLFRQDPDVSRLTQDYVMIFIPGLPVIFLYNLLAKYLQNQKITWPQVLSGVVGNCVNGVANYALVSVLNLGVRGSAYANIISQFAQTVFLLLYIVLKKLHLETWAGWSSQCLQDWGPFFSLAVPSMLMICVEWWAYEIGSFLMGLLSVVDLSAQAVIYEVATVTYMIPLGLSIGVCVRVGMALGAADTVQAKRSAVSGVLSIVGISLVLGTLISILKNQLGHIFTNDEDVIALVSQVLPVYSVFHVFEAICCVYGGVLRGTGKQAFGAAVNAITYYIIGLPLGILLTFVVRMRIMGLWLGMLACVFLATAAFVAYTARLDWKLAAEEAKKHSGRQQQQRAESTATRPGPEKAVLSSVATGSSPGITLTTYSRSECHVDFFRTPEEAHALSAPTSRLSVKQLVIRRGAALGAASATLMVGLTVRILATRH

cytochrome P450 enzymes = conditions: cited from earlier work
[13] = system: human colon carcinoma‐derived (Caco‐2) cells; conditions: no reference given; cited from earlier work
[14] = cited from earlier work; remark: listed apart in the source
[15] = 200 mg and 100 mg once‐daily; patients with active rheumatoid arthritis; phase III; cited from earlier work
[16] = study 1, filgotinib 100 mg with itraconazole 200 mg vs alone
[17] = study 1, filgotinib + itraconazole vs filgotinib alone
[18] = study 2, filgotinib 200 mg after multiple doses of rifampin 600 mg vs alone
[19] = study 2, filgotinib + rifampin vs filgotinib alone
[20] = study 3, filgotinib treatment period
[21] = patients with rheumatoid arthritis

O=C(Nc1nc2cccc(-c3ccc(CN4CCS(=O)(=O)CC4)cc3)n2n1)C1CC1 [Filgotinib]
Tmax ([1]; human, plasma, oral): 1 h
half-life ([1]; human, plasma, oral): 6.26 h
AUC(0-inf) ([1]; human, plasma, oral, 100 mg): 2190 ng·h/mL
AUC(0-t) ([1]; human, plasma, oral, 100 mg): 2170 ng·h/mL
Cmax ([1]; human, plasma, oral, 100 mg): 756 ng/mL
Tmax ([1]; human, plasma, oral, 100 mg): 1 h
half-life ([1]; human, plasma, oral, 100 mg): 7.4 h
increase in AUCinf by itraconazole [1, 16]: 45%
increase in C max by itraconazole [1, 16]: 64%
AUCinf %GLSM ratio (90% CI) [1, 17]: 145 (133, 157) %
AUClast %GLSM ratio (90% CI) [1, 17]: 145 (133, 158) %
C max %GLSM ratio (90% CI) [1, 17]: 164 (129, 208) %
effect of itraconazole on pharmacokinetic parameters (in words) ([1]; study 1, filgotinib: Tmax, t1/2, GS‐829845: C max, AUCinf, T max, t 1/2): did not affect
CL/F ([1]; study 1, single filgotinib 100 mg alone, fasting, mean (%CV), N = 13): 48.6 (25.0) L/h
Tmax ([2]; human, plasma, oral): 1.5 h
half-life ([2]; human, plasma, oral): 7.7 h
AUC(0-inf) ([2]; human, plasma, oral, 200 mg): 6960 ng·h/mL
AUC(0-t) ([2]; human, plasma, oral, 200 mg): 6980 ng·h/mL
Cmax ([2]; human, plasma, oral, 200 mg): 2190 ng/mL
Tmax ([2]; human, plasma, oral, 200 mg): 1 h
half-life ([2]; human, plasma, oral, 200 mg): 8.4 h
reduction in AUCinf by rifampin [2, 18]: 27%
reduction in C max by rifampin [2, 18]: 26%
AUCinf %GLSM ratio (90% CI) [2, 19]: 72.7 (69.1, 76.5) %
AUClast %GLSM ratio (90% CI) [2, 19]: 72.7 (69.1, 76.5) %
effect of rifampin on T max and t 1/2 (in words) ([2]; study 2, filgotinib: T max and t 1/2, GS‐829845: Tmax): similar
CL/F ([2]; study 2, single filgotinib 200 mg alone, mean (%CV), N = 14): 30.1 (21.0) L/h
tolerability (in words) (Safety assessments; all three studies, alone or with the co‐administered drugs): generally well‐tolerated
subjects with AEs (Safety assessments; study 1, by treatment period, all grade 1, not related to study drug): 7.7%
subjects with at least one graded laboratory abnormality (Safety assessments; study 1, by treatment period): 15%
subjects with at least one graded laboratory abnormality (Safety assessments; study 2, by treatment period): 14%
subjects with AEs (Safety assessments; study 3, by treatment period, all grade 1): 8.3%
subjects with grade 3 decreased lymphocytes and neutrophils (Safety assessments; [20]): 8.3%
subjects with grade 3 laboratory abnormalities (Safety assessments; [20]): 25%
subjects with grade 3 occult blood in urine (Safety assessments; [20]): 17%
subjects with at least one graded laboratory abnormality (Safety assessments; [20]): 75%
AE considered related to study drug (kind of AE) (Safety assessments; study 3, one subject, by treatment phase): headache
inhibition of OCT2 (in words) ([3]; in vitro data): may inhibit
ratio of maximum unbound plasma concentration over in vitro IC50 against OCT2 [3, 21]: 0.26
inhibition of MATE1 (in words) (MATE1 [4]; in vitro data): may inhibit
ratio of maximum unbound plasma concentration over in vitro IC50 against MATE1 (MATE1 [4]; [21]): 0.26
potency on JAK1 over JAK2, JAK3, tyrosine kinase 2, and other kinases (JAK1): greater than five‐fold higher potency
administered dose eliminated in the urine as filgotinib and its metabolites [5]: Approximately 87%
dose eliminated in the feces [5]: about 15%
orally administered dose recovered in feces as the named species ([5]; filgotinib: unchanged): ~5%
orally administered dose recovered in urine as the named species ([5]; filgotinib: unchanged): ~ 9%
metabolism by CES2 to form GS‐829845 (in words) [6]: primarily metabolized
substrate of P‐glycoprotein (P‐glycoprotein): substrates
inhibition of P‐gp (P‐gp): not inhibitors
inhibition of breast cancer resistance protein [7]: not inhibitors
inhibition of bile salt export pump (bile salt export pump): not inhibitors
inhibition of organic anion transporter 1 [8]: not inhibitors
inhibition of organic anion transporter 3 [9]: not inhibitors
inhibition of organic anion transporter 4 [10]: not inhibitors
inhibition of OCT2 [11]: inhibited
inhibition of MATE1 (MATE1 [12]): inhibited
inhibition of MATE2K (MATE2K): inhibited
drug‐drug interactions (DDIs) liability with cytochrome P450 enzymes (cytochrome P450 enzymes; in vitro and in vivo data): relatively low
substrate of the cytochrome P450 enzymes (cytochrome P450 enzymes; in vitro data, no reference given): not a substrate
efflux in Caco‐2 cells [13]: active efflux
accumulation following multiple doses [14]: no accumulation
time to steady‐state concentrations [14]: ~ 2 days
linearity of pharmacokinetics ([14]; from 50 to 200 mg, dose proportional and time‐independent): linear
signs and symptoms and physical function [15]: significantly improved
